In ChEMBL document CHEMBL5532637, “Antimicrobial activity of natural and semi-synthetic carbazole alkaloids” (Eur J Med Chem, 2023):
pIC50: −log10 of the molar value. ≈ marks a conversion by molar mass, not a printed value.

Key:
[1] = test system: Candida albicans; assay: Antimicrobial activity against Candida albicans assessed as zone of inhibition incubated for 48 hrs by disc diffusion method; type: functional
[2] = test system: Escherichia coli; assay: Antimicrobial activity against Escherichia coli assessed as zone of inhibition incubated for 24 hrs by disc diffusion method; type: functional
[3] = test system: Staphylococcus aureus; assay: Antimicrobial activity against Staphylococcus aureus assessed as zone of inhibition incubated for 24 hrs by disc diffusion method; type: functional
[4] = test system: Bacillus subtilis; assay: Antimicrobial activity against Bacillus subtilis assessed as zone of inhibition incubated for 24 hrs by disc diffusion method; type: functional
[5] = test system: Aspergillus niger; assay: Antimicrobial activity against Aspergillus niger assessed as zone of inhibition incubated for 48 hrs by disc diffusion method; type: functional
[6] = test system: Shigella flexneri; assay: Antimicrobial activity against Shigella flexneri assessed as zone of inhibition incubated for 24 hrs by disc diffusion method; type: functional
[7] = test system: Candida parapsilosis; assay: Antifungal activity against Candida parapsilosis assessed as inhibition of fungal growth incubated for 24 hrs by microplate reader assay; type: functional; settings: Lodderomyces parapsilosis
[8] = test system: Nakaseomyces glabratus; assay: Antifungal activity against Candida glabrata assessed as inhibition of fungal growth incubated for 24 hrs by microplate reader assay; type: functional
[9] = test system: Candida albicans; assay: Antifungal activity against Candida albicans assessed as inhibition of fungal growth incubated for 24 hrs by microplate reader assay; type: functional
[10] = test system: Klebsiella pneumoniae; assay: Antibacterial activity against Klebsiella pneumoniae ATCC 13883 assessed as zone of inhibition at 40 ug/ml incubated for 24 hrs by disk diffusion method; type: functional; settings: read-out: IZ
[11] = test system: Escherichia coli; assay: Antibacterial activity against Escherichia coli ATCC 25922 assessed as zone of inhibition at 40 ug/ml incubated for 24 hrs by disk diffusion method; type: functional; settings: read-out: IZ
[12] = test system: Bacillus subtilis; assay: Antibacterial activity against Bacillus subtilis ATCC 6633 assessed as zone of inhibition at 40 ug/ml incubated for 24 hrs by disk diffusion method; type: functional; settings: read-out: IZ
[13] = test system: Staphylococcus aureus; assay: Antibacterial activity against Staphylococcus aureus ATCC 6538 assessed as zone of inhibition at 40 ug/ml incubated for 24 hrs by disk diffusion method; type: functional; settings: read-out: IZ
[14] = test system: Pasteurella multocida; assay: Antibacterial activity against Pasteurella multocida assessed as inhibition of bacterial growth by agar well diffusion method; type: functional
[15] = test system: Bacillus subtilis; assay: Antibacterial activity against Bacillus subtilis assessed as inhibition of bacterial growth by agar well diffusion method; type: functional
[16] = test system: Bacillus subtilis; assay: Antibacterial activity against Bacillus subtilis NRS-744 assessed as inhibition of bacterial growth incubated for 18 to 24 hrs by microbroth dilution method; type: functional; settings: time 18-24 hrs
[17] = test system: Staphylococcus aureus; assay: Antibacterial activity against Staphylococcus aureus NRRL B-767 assessed as inhibition of bacterial growth incubated for 18 to 24 hrs by microbroth dilution method; type: functional; settings: time 18-24 hrs
[18] = test system: HeLa; assay: Cytotoxicity against human HeLa cells incubated for 48 hrs by sulforhodamine B assay; type: functional
[19] = test system: A549; assay: Cytotoxicity against human A549 cells incubated for 48 hrs by sulforhodamine B assay; type: functional
[20] = test system: Staphylococcus aureus; assay: Antimicrobial activity against methicillin-resistant Staphylococcus aureus assessed as inhibition of microbial growth incubated for 18 to 24 hrs by agar broth microplate assay; type: functional; settings: time 18-24 hrs, read-out: MIC100
[21] = test system: Salmonella typhimurium; assay: Antimicrobial activity against Salmonella typhimurium assessed as inhibition of microbial growth incubated for 18 to 24 hrs by agar broth microplate assay; type: functional, Salmonella enterica subsp. enterica serovar Typhimurium; settings: Salmonella enterica; time 18-24 hrs; read-out: MIC100
[22] = test system: Candida albicans; assay: Antimicrobial activity against Candida albicans assessed as inhibition of microbial growth incubated for 18 to 24 hrs by agar broth microplate assay; type: functional; settings: time 18-24 hrs, read-out: MIC100
[23] = test system: Pichia kudriavzevii; assay: Antifungal activity against Candida krusei ATCC 6258 assessed as inhibition of fungal growth incubated for 24 hrs by microtiter plate reader assay; type: functional
[24] = test system: Saccharomyces cerevisiae; assay: Antifungal activity against Saccharomyces cerevisiae ATCC 9763 assessed as inhibition of fungal growth incubated for 24 hrs by microtiter plate reader assay; type: functional
[25] = test system: Staphylococcus aureus; assay: Antibacterial activity against Staphylococcus aureus assessed as inhibition of bacterial growth by broth microdilution method; type: functional
[26] = test system: Pichia kudriavzevii; assay: Antifungal activity against Candida krusei MTCC 9215 assessed as inhibition of fungal growth by broth microdilution method; type: functional
[27] = test system: Candida tropicalis; assay: Antifungal activity against Candida tropicalis MTCC 9038 assessed as inhibition of fungal growth by broth microdilution method; type: functional
[28] = test system: Escherichia coli; assay: Antibacterial activity against Escherichia coli assessed as inhibition of bacterial growth by broth microdilution method; type: functional
[29] = test system: Candida albicans; assay: Antifungal activity against Candida albicans clinical isolate Gu4 assessed as inhibition of fungal growth by broth microdilution method; type: functional
[30] = test system: Candida albicans; assay: Antifungal activity against Candida albicans clinical isolate Gu5 assessed as inhibition of fungal growth by broth microdilution method; type: functional
[31] = test system: Pseudomonas aeruginosa; assay: Antibacterial activity against Pseudomonas aeruginosa assessed as inhibition of bacterial growth by broth microdilution method; type: functional
[32] = test system: Klebsiella pneumoniae; assay: Antibacterial activity against Klebsiella pneumoniae assessed as inhibition of bacterial growth by broth microdilution method; type: functional
[33] = test system: Candida albicans; assay: Antifungal activity against Candida albicans clinical isolate DSY294 assessed as inhibition of fungal growth by broth microdilution method; type: functional
[34] = test system: Candida parapsilosis; assay: Antifungal activity against Candida parapsilosis MTCC 7043 assessed as inhibition of fungal growth by broth microdilution method; type: functional; settings: Lodderomyces parapsilosis
[35] = test system: Nakaseomyces glabratus; assay: Antifungal activity against Candida glabrata MTCC 3814 assessed as inhibition of fungal growth by broth microdilution method; type: functional
[36] = test system: Candida albicans; assay: Antifungal activity against Candida albicans SC5314 assessed as inhibition of fungal growth by broth microdilution method; type: functional
[37] = test system: Candida albicans; assay: Antifungal activity against Candida albicans clinical isolate DSY296 assessed as inhibition of fungal growth by broth microdilution method; type: functional
[38] = test system: Candida albicans; assay: Antifungal activity against Candida albicans MTCC 3017 assessed as inhibition of fungal growth by broth microdilution method; type: functional
[39] = test system: Staphylococcus aureus; assay: Antibacterial activity against Staphylococcus aureus PTCC 1133 assessed as inhibition of bacterial growth by serial dilution assay; type: functional
[40] = test system: Escherichia coli; assay: Antibacterial activity against Escherichia coli PTCC 1330 assessed as inhibition of bacterial growth by serial dilution assay; type: functional
[41] = test system: Staphylococcus aureus; assay: Antibacterial activity against Staphylococcus aureus assessed as zone of inhibition by filter paper disk-agar diffusion method; type: functional
[42] = test system: Mycobacterium tuberculosis; assay: Antibacterial activity against Mycobacterium tuberculosis assessed as inhibition of bacterial growth; type: functional
[43] = test system: Bacillus cereus; assay: Antibacterial activity against Bacillus cereus assessed as inhibition of bacterial growth; type: functional, organism-based

SMILES: Cn1c2ccccc2c2cc(-c3cc(-c4ccccn4)nc(N)n3)ccc21
- inhibition zone (IZ) [1]: 15 mm
- inhibition zone (IZ) [2]: 10 mm
- inhibition zone (IZ) [3]: 18 mm
- inhibition zone (IZ) [4]: 18 mm
- inhibition zone (IZ) [5]: 12 mm
- inhibition zone (IZ) [6]: 18 mm

SMILES: COc1ccc(CNCCCn2c3ccccc3c3ccccc32)cc1
- MIC80 [7]: 8 µg/mL (≈ 23.2 µM)
- MIC80 [8]: 4 µg/mL (≈ 11.6 µM)
- MIC80 [9]: 16 µg/mL (≈ 46.4 µM)

SMILES: CCn1c2ccccc2c2cc(-c3cc(=O)c4ccccc4o3)ccc21
- zone of inhibition at 40 µg/mL [10]: 27 mm
- zone of inhibition at 40 µg/mL [11]: 29 mm
- zone of inhibition at 40 µg/mL [12]: 25 mm
- zone of inhibition at 40 µg/mL [13]: 24 mm

SMILES: C/C(=N/Nc1ccccc1)C1CCCc2c1n(C)c1c([N+](=O)[O-])cc([N+](=O)[O-])cc21 (stereo not drawn)
- MIC [14]: 1.8 µg/mL (≈ 4.42 µM)
- MIC [15]: 1.8 µg/mL (≈ 4.42 µM)

SMILES: CCn1c2ccccc2c2cc(NC(=O)COc3cccc4cccnc34)ccc21
- MIC [16]: 31.2 µg/mL (≈ 79 µM)
- MIC [17]: 31.2 µg/mL (≈ 79 µM)

SMILES: CC(C)=CCc1ccc2c([nH]c3cc(O)c(C=O)cc32)c1O
- IC [18]: 1.91 µg/mL
- IC [19]: 5.25 µg/mL

SMILES: O=c1[nH]n(-c2ccccc2)c(=O)c2cc3c(cc12)[nH]c1ccc([N+](=O)[O-])cc13
- MIC [20]: 12 µg/mL
- MIC [21]: > 512 µg/mL
- MIC [22]: 32 µg/mL

SMILES: FC(F)(F)Oc1ccc2c3c([nH]c2c1)C(NCc1ccc(Br)cc1)CCC3 (stereo not drawn)
- MIC50 [23]: 4.7 µM (≈ 2.06 µg/mL)
- MIC50 [24]: 1.5 µM (≈ 0.659 µg/mL)

SMILES: COc1cc2c(cc1O)[nH]c1c3c(c(C)cc12)OC(C)(C)C=C3
- MIC90 [25]: 3.12 µg/mL (≈ 10.1 µM)
- MIC90 [26]: 12.5 µg/mL (≈ 40.4 µM)
- MIC90 [27]: 12.5 µg/mL (≈ 40.4 µM)
- MIC90 [28]: > 100 µg/mL
- MIC90 [29]: 12.5 µg/mL (≈ 40.4 µM)
- MIC90 [30]: 12.5 µg/mL (≈ 40.4 µM)
- MIC90 [31]: > 100 µg/mL
- MIC90 [32]: 3.12 µg/mL (≈ 10.1 µM)
- MIC90 [33]: 12.5 µg/mL (≈ 40.4 µM)
- MIC90 [34]: 12.5 µg/mL (≈ 40.4 µM)
- MIC90 [35]: 12.5 µg/mL (≈ 40.4 µM)
- MIC90 [36]: 12.5 µg/mL (≈ 40.4 µM)
- MIC90 [37]: 12.5 µg/mL (≈ 40.4 µM)
- MIC90 [38]: 12.5 µg/mL (≈ 40.4 µM)

SMILES: CCC(O)Cn1cc(Cn2c3ccccc3c3ccccc32)nn1 (stereo not drawn)
- MIC50 [39]: 1.56 µg/mL (≈ 4.88 µM)
- MIC50 [40]: 3.12 µg/mL (≈ 9.75 µM)

SMILES: COc1cc2c(cc1O)[nH]c1cc(O)c(C=O)cc12 [CLAULANSINE J]
- inhibition zone (IZ) [41]: 14.2 mm

SMILES: Cc1cc2c([nH]c3ccc4c(c32)C=CC(C)(C)O4)c(-c2c(O)c(C)cc3c2[nH]c2ccc4c(c23)C=CC(C)(C)O4)c1O [CLAUSENAWALLINE A]
- MIC [42]: 12.5 µg/mL (≈ 22.5 µM)

SMILES: Cc1cc2c([nH]c3ccccc32)c2c1OC(C)(C)C=C2 [GRINIMIBINE]
- pIC50 [43]: 5.47
